Values quoted from earlier work, collected in patent publication US20150209327A1, “METHODS FOR THE TREATMENT OF OBESITY USING APREMILAST” (Celgene Corporation, priority 2014, published 2015).

Conditions: treatment of COPD; cited from earlier work

**Q.** Which “weight change as a side effect” value does the source give for O=C(Nc1c(Cl)cncc1Cl)c1ccc(OC(F)F)c(OCC2CC2)c1 [roflumilast] here?
**A.** Weight decrease was observed
